We go through 19 compounds from PubChem BioAssay (NCI).

Molecules are shown by their SMILES. “And” between values parts separate entries of the source, which are not always exact repeats. Equal values may be shown once.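 Test compounds were applied to cells in 96-well plates for 48 hours at 5 doses. GI50 is the concentration that inhibits growth by half. TGI: concentration producing complete growth inhibition.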

Among the test systems are RPMI-8226 leukemia; MCF7 breast; EKVX NSCLC; ACHN renal; NCI/ADR-RES ovarian; RXF 393 renal; HCT-15 colon; OVCAR-5 ovarian; SNB-19 CNS; OVCAR-3 ovarian.
Common to all, as to assay: NCI anticancer screen, dose series, 48 h

Regarding `Nc1ccc(C(=O)N2CCC[C@H]2CO)c(N)c1`, the TGI with RPMI-8226 leukemia, with MCF7 breast, in the assay with EKVX NSCLC, in the assay on ACHN renal, with NCI/ADR-RES ovarian and with RXF 393 renal was over 100 µM in each case. Moreover, the TGI in the assay with HCT-15 colon, in the assay on OVCAR-5 ovarian, in the assay on SNB-19 CNS and with OVCAR-3 ovarian was over 100 µM each time.

With `CN(C)CCOC1(Cc2ccc(F)cc2)CCC(C(C)(C)C)CC1` (stereo not given), the TGI in the assay with RPMI-8226 leukemia is 5.09 µM and 7.79 µM; in the assay with MCF7 breast, 14.3 µM and 18.3 µM; in the assay on EKVX NSCLC it was 27.4 µM and 32.5 µM; in the assay with ACHN renal, 23.5 µM and 25.7 µM; in the assay with NCI/ADR-RES ovarian, 24.2 µM and 27.7 µM; with RXF 393 renal it was 8.04 µM. Moreover, the TGI in the assay on HCT-15 colon was 21.9 µM and 19.7 µM; in the assay with OVCAR-5 ovarian it was 21 µM and 20.5 µM; in the assay with SNB-19 CNS it was 24.6 µM and 19.4 µM; in the assay with OVCAR-3 ovarian, 23.2 µM and 28.1 µM.

Turning to `C=CC[C@]12C=C(OC)[C@@H](O)[C@](OC)(C(c3cc(OC)c4c(c3)OCO4)[C@H]1C)[C@H]2OC(C)=O` (stereo not given in full), the TGI with RPMI-8226 leukemia, in the assay with MCF7 breast, in the assay with EKVX NSCLC, with ACHN renal, in the assay with NCI/ADR-RES ovarian and in the assay with RXF 393 renal was over 100 µM throughout. In addition, the TGI with HCT-15 colon, in the assay on OVCAR-5 ovarian, in the assay on SNB-19 CNS and in the assay on OVCAR-3 ovarian was over 100 µM in each case.

In the case of `Cn1c2ccccc2c(=NNc2cccc(C(=O)O)c2)c2ccccc21`, the TGI with RPMI-8226 leukemia is 28.3 µM; in the assay on MCF7 breast, 11.7 µM; in the assay on EKVX NSCLC it was 28.7 µM; in the assay on ACHN renal, 35.5 µM; in the assay with NCI/ADR-RES ovarian, 67.7 µM; in the assay on RXF 393 renal, 22 µM. Further, the TGI is 51.4 µM in the assay on HCT-15 colon, 41.6 µM with OVCAR-5 ovarian, over 100 µM in the assay with SNB-19 CNS and 11.9 µM in the assay with OVCAR-3 ovarian.

In the case of `Nc1ccc(S2(c3ccc(N)cc3)C=C(c3ccccc3)C(c3ccccc3)=C2)cc1`, the TGI was over 100 µM with RPMI-8226 leukemia; over 100 µM in the assay on MCF7 breast; over 100 µM in the assay on EKVX NSCLC; over 92.5 µM in the assay with ACHN renal; over 100 µM in the assay on NCI/ADR-RES ovarian; over 100 µM in the assay on RXF 393 renal. In addition, the TGI in the assay on HCT-15 colon, in the assay with OVCAR-5 ovarian, in the assay on SNB-19 CNS and in the assay on OVCAR-3 ovarian was over 100 µM in each case.

As to `Cc1nc2sc3ccccc3n2c(=O)c1N=Nc1ccc(Cl)cc1`, the TGI in the assay on RPMI-8226 leukemia, in the assay on MCF7 breast, in the assay with EKVX NSCLC, with ACHN renal, in the assay on NCI/ADR-RES ovarian and with RXF 393 renal was over 100 µM in each case. The TGI in the assay on HCT-15 colon, in the assay with OVCAR-5 ovarian, with SNB-19 CNS and in the assay on OVCAR-3 ovarian was over 100 µM each time.

For `CC(=O)[C@@]1(O)CC[C@H]2[C@@H]3C[C@H](C)C4=CC(=O)C=C[C@]4(C)[C@@]3(F)[C@@H](O)C[C@@]21C`, the TGI in the assay on RPMI-8226 leukemia, in the assay with MCF7 breast, with EKVX NSCLC, in the assay with ACHN renal, with NCI/ADR-RES ovarian and with RXF 393 renal was over 100 µM throughout. Further, the TGI in the assay on HCT-15 colon, in the assay on OVCAR-5 ovarian, in the assay on SNB-19 CNS and in the assay with OVCAR-3 ovarian was over 100 µM each time.

With `N#Cc1c(Cl)cc(Cl)n2c1nc1ccccc12`, the TGI amounted to 58.9 µM with RPMI-8226 leukemia; 24 µM with MCF7 breast; 67.6 µM with EKVX NSCLC; 6.65 µM in the assay with ACHN renal; 40.5 µM in the assay on NCI/ADR-RES ovarian; 26.7 µM in the assay with RXF 393 renal. Further, the TGI in the assay on HCT-15 colon amounted to 12.3 µM; with OVCAR-5 ovarian it was 41.9 µM; in the assay with SNB-19 CNS it was 50.7 µM; with OVCAR-3 ovarian, 15.6 µM.

Take `CCOC(=O)C1C2CCC1CC(=NNc1ccc([N+](=O)[O-])cc1[N+](=O)[O-])C2` (stereo not given): the TGI in the assay on RPMI-8226 leukemia, in the assay on MCF7 breast, in the assay with EKVX NSCLC, with ACHN renal, in the assay on NCI/ADR-RES ovarian and in the assay on RXF 393 renal was over 50 µM in each case. Further, the TGI in the assay with HCT-15 colon, in the assay on OVCAR-5 ovarian, with SNB-19 CNS and with OVCAR-3 ovarian was over 50 µM each time.

Take `COc1ccc(-c2nn(-c3ccc(NC(=O)Nc4cc(C(F)(F)F)cc(C(F)(F)F)c4)cc3)cc2-c2ccncc2)cc1Cl`: the GI50 was 1.23 µM in the assay with RPMI-8226 leukemia; 2.86 µM in the assay on MCF7 breast; 3.22 µM in the assay with EKVX NSCLC; 2.75 µM in the assay on ACHN renal; 2.91 µM in the assay with NCI/ADR-RES ovarian; 1.69 µM in the assay with RXF 393 renal. Moreover, the GI50 in the assay with HCT-15 colon was 2.88 µM; in the assay on OVCAR-5 ovarian it was 2.64 µM; in the assay with SNB-19 CNS it was 4 µM; in the assay on OVCAR-3 ovarian, 2.32 µM. For the same compound, the TGI in the assay on RPMI-8226 leukemia is 3.58 µM; with MCF7 breast, 9.72 µM; with EKVX NSCLC, over 100 µM; in the assay on ACHN renal it was 58.5 µM; with NCI/ADR-RES ovarian it was over 100 µM; with RXF 393 renal, 3.87 µM. Besides, the TGI was over 100 µM in the assay on HCT-15 colon, 14.7 µM in the assay on OVCAR-5 ovarian, 27.3 µM in the assay with SNB-19 CNS and 8.85 µM with OVCAR-3 ovarian.

Regarding `C=CCOc1ccc(C2C(C(=O)OCC)C(=O)CC(C)(O)C2C(=O)OCC)cc1OC` (stereo not given), the TGI in the assay on RPMI-8226 leukemia, in the assay on MCF7 breast, in the assay with EKVX NSCLC, in the assay on ACHN renal, in the assay with NCI/ADR-RES ovarian and in the assay on RXF 393 renal was over 100 µM throughout. The TGI with HCT-15 colon, in the assay on OVCAR-5 ovarian, in the assay with SNB-19 CNS and with OVCAR-3 ovarian was over 100 µM throughout.

Consider `C=C1CN2CC(=C)CN(C1)CS(=O)(=O)N1CC(=C)CN(CC(=C)C1)S(=O)(=O)N1CC(=C)CN(CC(=C)C1)S(=O)(=O)C2`, for which the TGI is over 100 µM with RPMI-8226 leukemia; over 100 µM with MCF7 breast; over 100 µM in the assay with EKVX NSCLC; over 100 µM with ACHN renal; over 100 µM in the assay with NCI/ADR-RES ovarian; 56.8 µM in the assay with RXF 393 renal. The TGI with HCT-15 colon, in the assay with OVCAR-5 ovarian, with SNB-19 CNS and in the assay on OVCAR-3 ovarian was over 100 µM in each case.

Turning to `CC(C)(C)OC(=O)NCCCNC1(c2cc3ccccc3s2)CCCCC1`, the TGI in the assay with RPMI-8226 leukemia came to 13.7 µM; in the assay on MCF7 breast, 30.6 µM; in the assay with EKVX NSCLC, 28.6 µM; in the assay on ACHN renal, 33.6 µM; with NCI/ADR-RES ovarian, 30.2 µM; in the assay with RXF 393 renal, 29.8 µM. The TGI with HCT-15 colon came to 29.5 µM; in the assay on OVCAR-5 ovarian it was 27.5 µM; in the assay on SNB-19 CNS, 27.2 µM; in the assay with OVCAR-3 ovarian it was 27.5 µM.

On to `CCCCN=C(c1ccccc1)N1CCOCC1`, for which the TGI in the assay with RPMI-8226 leukemia, in the assay on MCF7 breast, in the assay with EKVX NSCLC, in the assay on ACHN renal, in the assay on NCI/ADR-RES ovarian and with RXF 393 renal was over 100 µM each time. Moreover, the TGI with HCT-15 colon, in the assay on OVCAR-5 ovarian, in the assay with SNB-19 CNS and in the assay with OVCAR-3 ovarian was over 100 µM throughout.

Turning to `CCN1CCC(O)(/C=C/c2ccc(C)cc2C)C(C(=O)/C=C/c2ccc(C)cc2C)C1` (stereo not given), the TGI in the assay with RPMI-8226 leukemia is over 21.2 µM; in the assay on MCF7 breast, 24.4 µM; in the assay on EKVX NSCLC it was over 26 µM; with ACHN renal it was 3.47 µM; with NCI/ADR-RES ovarian, 7.31 µM; with RXF 393 renal, 14.3 µM. In addition, the TGI with HCT-15 colon amounted to 4.14 µM; in the assay on OVCAR-5 ovarian, 14.7 µM; in the assay with SNB-19 CNS, 20.3 µM; in the assay with OVCAR-3 ovarian it was 7.84 µM.

Regarding `Nc1ccc(S(=O)(=O)Nc2nccs2)cc1`, the TGI with RPMI-8226 leukemia, in the assay with MCF7 breast, in the assay with EKVX NSCLC, in the assay on ACHN renal, in the assay on NCI/ADR-RES ovarian and with RXF 393 renal was over 100 µM each time. Further, the TGI in the assay with HCT-15 colon, in the assay with OVCAR-5 ovarian, in the assay with SNB-19 CNS and with OVCAR-3 ovarian was over 100 µM each time.

On to `CC12CCC(O)CC1CCC1C2CCC2(C)C(C(=O)CC(O)C(F)(F)F)CCC12` (stereo not given), for which the TGI with RPMI-8226 leukemia is 26.6 µM; in the assay on MCF7 breast, over 100 µM; in the assay with EKVX NSCLC, 98.9 µM; in the assay with ACHN renal it was over 100 µM; in the assay on NCI/ADR-RES ovarian, over 100 µM; in the assay with RXF 393 renal, 29.3 µM. Moreover, the TGI is over 100 µM with HCT-15 colon, over 76.5 µM in the assay with OVCAR-5 ovarian, 69.6 µM with SNB-19 CNS and over 90.9 µM in the assay with OVCAR-3 ovarian.

Regarding `O=[N+]([O-])/C(C(Cl)=C(Cl)Cl)=C(\N1CCCCC1)n1cncn1`, the TGI was found to be 57.2 µM with RPMI-8226 leukemia; 50.6 µM with MCF7 breast; 31.6 µM in the assay on EKVX NSCLC; 32.7 µM in the assay with ACHN renal; 56 µM with NCI/ADR-RES ovarian; 24.2 µM with RXF 393 renal. The TGI in the assay on HCT-15 colon was 38.1 µM; in the assay with OVCAR-5 ovarian, 32.1 µM; in the assay with SNB-19 CNS, 33.6 µM; with OVCAR-3 ovarian it was 32.2 µM.

Turning to `CC(C(O)Cc1ccccc1)N(C)N=Nc1ccc([N+](=O)[O-])cc1` (stereo not given), the TGI was 55.5 µM with RPMI-8226 leukemia; 80.6 µM in the assay with MCF7 breast; 73.2 µM in the assay with EKVX NSCLC; 77 µM in the assay with ACHN renal; 39.9 µM in the assay with NCI/ADR-RES ovarian; 23.7 µM in the assay on RXF 393 renal. Further, the TGI is 61 µM in the assay with HCT-15 colon, 76.1 µM with OVCAR-5 ovarian, over 100 µM in the assay with SNB-19 CNS and 36.3 µM in the assay on OVCAR-3 ovarian.
